Measurements reported in US11078221B2, “Phosphorodiamidates and other phosphorus derivatives of fingolimod and related S1P receptor modulators” (UNIVERSITY COLLEGE CARDIFF CONSULTANTS LTD, priority 2017, dated 2021).

Experiments:
NPC1 and −2 = conditions: mice, clinically relevant doses, cited from earlier work
[1] = system: human NPC1 mutant fibroblasts; conditions: cited from earlier work
Carboxypeptidase Y = target: T1, Carboxypeptidase Y (Saccharomyces cerevisiae, UniProt P00729); assay: Carboxypeptidase Y experiment (31P NMR); type: in vitro ADME
T1 construct: purchased Aldrich
T1 sequence (P00729 112-532): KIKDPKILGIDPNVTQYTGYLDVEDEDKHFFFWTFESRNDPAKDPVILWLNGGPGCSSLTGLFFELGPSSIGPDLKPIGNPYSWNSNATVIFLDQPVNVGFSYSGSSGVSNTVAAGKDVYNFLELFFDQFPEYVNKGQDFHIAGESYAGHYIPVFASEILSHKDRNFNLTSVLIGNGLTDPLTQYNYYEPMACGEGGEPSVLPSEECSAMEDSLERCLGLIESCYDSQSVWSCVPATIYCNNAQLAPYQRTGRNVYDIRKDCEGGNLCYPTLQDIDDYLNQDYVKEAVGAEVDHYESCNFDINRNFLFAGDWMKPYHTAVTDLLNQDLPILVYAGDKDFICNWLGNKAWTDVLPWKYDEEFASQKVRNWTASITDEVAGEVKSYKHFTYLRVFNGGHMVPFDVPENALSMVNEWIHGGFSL
Method: Blank in acetone d6 alone (No trizma): 1-2 mg of pentyl (2S)-2-[({2-amino-3-hydroxy-2-[2-(4-octylphenethyl]propoxy}(4-methoxyphenoxy) phosphoryl)amino]propanoate is dissolved in 150 μL of acetone d6 and the solution transferred into an NMR tube. The ^31P spectrum is recorded (16 scans are sufficient).
The sample in the NMR tube is diluted with 100 μL of Trizma buffer (pH=7.6). 0.1 mg of Carboxypeptidase Y (Aldrich) is then dissolved in 150 μL of Trizma buffer and the resulting solution is added to the NMR tube. ^31P NMR spectra are then recorded (512 scans, 600 sec delay, 20 experiments.) FIG. 1

[2] = Human serum stability (31P NMR); type: in vitro ADME
[3] = B95a cell lysate experiment (31P NMR); type: in vitro ADME; conditions: marmoset (cotton-top tamarin), B95a cell lysate; pH 7.6, 37 Celsius
Method: (§1) 4 mg of pentyl (2S)-2-[({2-amino-3-hydroxy-2-[2-(4-octylpheny)ethyl]propoxy}(4-methoxyphenoxy)phosphoryl)amino]propanoate are dissolved in a mixture of 150 μL of acetone d6 and 100 μL of trizma buffer (pH=7.6). The solution is transferred into an NMR tube. The ^31P spectrum is recorded (64 scans).
(§2) To the blank sample in the NMR tube 150 μL of B95a cell lysate (6.000.000 cell/m L) are added and then ^31P spectra are recorded at 37 Celsius (512 scans, 600 sec delay, 20 experiments).

B95a cell lysate = B95a cell lysate experiment (31P NMR); type: in vitro ADME; conditions: pH 7.6, 37 Celsius, FIG. 4
Method: as §1, §2

Row | SMILES | cholesterol (NPC1 and −2; SphK2-dependent) | expression of NPC1 and −2 (NPC1 and −2; brain and liver) | accumulation of cholesterol and glycosphingolipids [1] | expression of NPC1 and −2 [1] | activation of the prodrug by the esterase (Carboxypeptidase Y; acetone d6 / Trizma buffer, Carboxypeptidase Y, FIG. 1) | half-life (Carboxypeptidase Y; yeast (Saccharomyces cerevisiae), Carboxypeptidase Y in Trizma buffer / acetone d6, acetone d6 / Trizma buffer pH 7.6, read-out: half-life in the presence of Carboxypeptidase Y) | stability in human serum ([2]; DMSO d6 / Trizma buffer pH 7.6) | time over which the prodrug is stable in human serum ([2]; FIG. 3) | half-life at 10 mg/mL [3] | processing in B95a cell lysate (B95a cell lysate)
1 | CCCCCCCCc1ccc(CCC(N)(CO)CO)cc1 [FTY720, Fingolimod] | decreased cholesterol | increased expression of NPC1 and −2 in brain and liver | significantly reduced the accumulation of cholesterol and glycosphingolipids | greatly increased expression of NPC1 and −2 |  |  |  |  |  | 
2 | CCCCCCCCc1ccc(CCC(N)(CO)COP(=O)(N[C@@H](C)C(=O)OCCCCC)Oc2ccc(OC)cc2)cc1 (stereo partly drawn) [pentyl (2S)-2-[({2-amino-3-hydroxy-2-[2-(4-octylphenyl)ethyl]propoxy}(4-methoxyphenoxy)phosphoryl)amino]propanoate] |  |  |  |  | rapidly activated by the esterase | 35.1 h | stable in human serum | at least 665 minutes | 11.1 h | processed to release the active monophosphorylated analogue
